Laboratory results as given in paper PMC12372887, “Mechanism and cellular actions of the potent AMPK inhibitor BAY-3827” (Science Advances, 2025).
pIC50: −log10 of the molar value. Like-named read-outs stand apart in the source and are kept apart here.

Columns and labels:
HEK293 cells = assay: RSK signaling immunoblot in HEK293 cells; format: cell-based, human
Protocol: HEK293 cells (Invitrogen, R75007) were seeded at a density of 500,000 cells per well in six-well cell culture plates (Corning Incorporated Costar #3516) in Dulbecco’s modified Eagle medium (DMEM) high-glucose + GlutaMAX Supplement, pyruvate (Thermo Fisher Scientific, catalog no. 31966-021) containing penicillin G (100 U/ml), streptomycin (100 μg/ml), and 10% (v/v) FBS. Once attached, the next day, the media were changed to serum-free and the cells were starved for 16 hours followed by compound treatment with BAY-3827, BI-D1870 (MedChemExpress, #HY-10510) ± 10 μM MK-2206 dihydrochloride (MedChemExpress, #HY-10358) with 30 min incubation at 37°C followed by coincubation with […] (MedChemExpress, #HY-18739) or vehicle for additional 30 min with final assay DMSO concentration of 0.13%. All cell lines used here were tested monthly for mycoplasma and tested negative.
Following compound treatment, the cells were washed with room temperature PBS and lysed on ice with the addition of lysis buffer [50 mM tris-HCl (pH 7.5), 150 mM NaCl, 1 mM EDTA, 1 mM EGTA, 0.27 M sucrose, 1% w/v Triton X-100, 20 mM glycerol-2 phosphate disodium, 50 mM NaF, and 5 mM Na4P2O7.10 H2O] containing proteases and phosphatase inhibitors [0.5 mM phenylmethylsulfonyl fluoride (PMSF), 1 mM benzamidine HCl, leupeptin (1 μg/ml), pepstatin A (1 μg/ml), 1 μM microcystin-LR, 1 mM Na3VO4, and 1 mM DTT]. Lysates were centrifuged at 10,000g, 4°C for 10 min, and protein concentration of the supernatant was determined with the Pierce Bradford Protein Assay Kit (Thermo Fisher Scientific, #23200) and read on the Hidex Plate Reader (software version 0.5.64.0). Samples were prepared in Laemmli sample buffer (tris 200 mM, 8% SDS, EDTA 2 mM, and 40% glycerol) supplemented with 10% DTT and boiled for 5 min at 100°C. Ten micrograms of protein per sample was run on a Criterion tris-glycine polyacrylamide gel (Bio-Rad, #5678095) and transferred to a nitrocellulose membrane. For cell signaling experiments in HEK293 cells, the samples were run on a Criterion TGX stain-free precast gel (Bio-Rad, catalog no. 5678085) with transfer to a polyvinylidene difluoride membrane performed in Bio-Rad Criterion blotter (#1704071) using tris-glycine transfer buffer (Bio-Rad, #1610734) following the manufacturer’s instructions. The membranes were probed at 4°C overnight in a 4% BSA TBS-T solution containing 0.02% sodium azide with the following antibodies where appropriate: Phospho-ACC (Ser^79) (1:1000, Cell Signaling Technology, #3661S), ACC (C83B10) (1:1000, Cell Signaling Technology, #3676S), phospho-Raptor (Ser^792) (1:1000, Cell Signaling Technology, #2083S), Raptor (24C12) (1:1000, Cell Signaling Technology, #2280S), GSK3αβ (1:2000, Sigma-Aldrich, #04-903), phospho-GSK3αβ (Ser^21/9) (D17D2) (1:1000, Cell Signaling Technology, #8566S), ERK1/2 (137F5) (1:1000, Cell Signaling Technology, #4695), phospho-ERK1/2 (Thr^202/Tyr^204) (D13.14.4E) (1:1000, Cell Signaling Technology, #4370), phospho-AMPKα (Thr^172) (40H9) (1:1000, Cell Signaling Technology, #2535S), AMPKα (1:1000, Cell Signaling Technology, #2532S), anti–glyceraldehyde-3-phosphate dehydrogenase antibody (1:5000, Cell Signaling Technology, #G8795), and vinculin (1:1000, Cell Signaling Technology, #13901). Membranes were scanned using the Odyssey Fc LiCor system (exposure time, 30 s) with densitometry analysis performed using LiCor Image Studio Lite normalizing to control loading protein. Figures were made using GraphPad Prism v10.

AMPK = system: AMPK; design: method as in PMID 33492659; settings: 2 μM AMP, cited from earlier work
[1] = system: AMPKα1α2−/− DKO primary hepatocytes; assay: Lipogenesis assay ([14C]-acetate incorporation into fatty acids); format: cell-based, mouse
Protocol: Mouse hepatocytes were isolated by collagenase perfusion as previously described ([47]). Hepatocytes were seeded in medium Eagle-199 (MEM-199) (#41150, Thermo Fisher Scientific) containing penicillin G (100 U/ml), streptomycin (100 μg/ml), and 10% (v/v) fetal bovine serum (FBS). Hepatocytes were left for attachment (3 to 4 hours) and serum-starved overnight at 37°C with 5% CO2 in MEM-199 supplemented with penicillin G (100 U/ml), streptomycin (100 μg/ml), 10 nM insulin, and 100 nM dexamethasone. […] Cells were then harvested in 0.5 ml of phosphate-buffered saline (PBS), transferred into 1 ml of 40% KOH and 2 ml of methanol followed by 1-hour incubation at 80°C. Lipids were […] by acidifying the samples in 37% HCl and extracted with petroleum ether. Extracts were allowed to evaporate to dryness and then dissolved in Ultima Gold scintillation fluid for determination of [^14C]-acetate incorporation into lipids.

SMILES: CCc1ccccc1C(=O)Nc1n[nH]c2c(C)c(F)c(C3C(C#N)=C(C)N(C)C(C)=C3C#N)cc12 [BAY-3827, N-[5-(3,5-dicyano-1,2,6-trimethyl-4H-pyridin-4-yl)-6-fluoro-7-methyl-1H-indazol-3-yl]-2-ethylbenzamide]
- PMA-stimulated pGSK3αβ (surrogate of RSK activity) (HEK293 cells; 10 μM, in the presence of MK-2206 (10 μM)): inhibited to the same extent
- ACC1 phosphorylation (HEK293 cells; serum-starved HEK293, 1 and 10 μM): dose-dependent reduction
- pIC50 (AMPK; high (2 mM) ATP): 7.82
- pIC50 (AMPK; low (10 μM) ATP): 8.85
- effect on lipogenesis [1]: no effect
